Experimental data reported in publication PMC6731340, “Evaluation of synergy between host and pathogen-directed therapies against intracellular Leishmania donovani” (International Journal for Parasitology: Drugs and Drug …, 2019).
Like-named read-outs stand apart in the source and are kept apart here.

Legend:
[1] = system: L. donovani extracellular promastigotes; test: Resazurin-based drug susceptibility assay on promastigotes; assay type: cell-based; conditions: Leishmania donovani, 72 h drug at 25 °C
Experimental: (§1) Leishmania donovani strain (ATCC 30030; ATCC; Manassas VA) was used in all studies and grown via manufacture's specification. The promastigotes screening were performed as described previously, with few modifications ([Kulshrestha et al., 2013]). Late log-phase promastigotes (1 × 10^5 per one 96-well) were incubated with drug for 72 h at 25 °C. Resazurin was added [0.002% (w/v)], incubated for 24 h and assessed fluorometrically (ex: 544 nm/em: 590 nm; SpectraMax M2, Molecular Devices, Sunnyvale, CA). L. donovani axenic amastigotes were differentiated as described previously, with little modification ([Ephros et al., 1997]). Late log-phase promastigotes were differentiated into axenic amastigotes in a low pH (6.3) medium for 96 h at 37 °C. Fully differentiated axenic amastigotes (2 × 10^5 per one 96-well) were incubated 72 h with drug at 37 °C, and resazurin assay was then performed as indicated above.

[2] = system: L. donovani intracellular amastigotes; test: Image-based (Giemsa) evaluation of intracellular anti-leishmanial activity in infected BMDMs; assay type: cell-based; conditions: Leishmania donovani, BMDM, 72 h, Giemsa stain
Experimental: An image-based anti-leishmanial assay was used as described previously with slight modification ([Collier et al., 2016]). BMDMs seeded on round glass coverslips (5 × 10^5 cells per one 24-well) were allowed to adhere overnight, infected with stationary phase L. donovani promastigotes (MOI 1:10), incubated overnight, and washed (3×) with warmed serum-free media. Compounds were added, incubated for 72 h, washed (3×) with PBS, fixed with methanol and stained with Giemsa stain (1:20 in H2O). An EVOS XL (100×, Thermo Fisher Scientific) was used for imaging. L. donovani amastigotes per 100 macrophages was determined, in duplicate, and in a blinded fashion.

[3] = system: L. donovani intracellular amastigotes; test: Modified resazurin-based viability analysis of L. donovani in infected macrophages; assay type: cell-based, Leishmania donovani; conditions: for IC50: Leishmania donovani, BMDM, infected BMDMs, 72 h; for Selectivity (LD50/IC50): LD50 macrophages / resazurin intracellular IC50
Experimental: BMDMs (1 × 10^5 per one 96-well) infected overnight with stationary phase L. donovani promastigotes (MOI 1:10), were washed (3×) with serum free DMEM, and incubated with compounds for 72 h. Then, parasites were rescued with BMDM controlled lysis, modified from a previous report ([Kiderlen and Kaye, 1990]). In brief, cells were washed with serum-free HEPES-buffered RPMI (HEPES-RPMI; 1×), lysed (20 min) with HEPES-RPMI (100 μL/well) with 0.008% SDS (w/v), SDS neutralized with HEPES-RPMI with 17% FBS (v/v; 150 μL/well) and placed in an air-tight container (25 °C for 96 h). Resazurin [0.02% (w/v); 25 μL] was added, incubated (24 h) and was assessed fluorometrically.

[4] = design: method as in earlier work; conditions: ref Mishra and Singh, 2013; Perez-Victoria et al., 2006; Seifert et al., 2007; cited from earlier work
[5] = system: Mouse bone marrow-derived macrophages (BMDMs); test: LDH mammalian cytotoxicity assay; conditions: 50% Lethal Dose for BMDMs
Text: (§2) Mouse bone marrow-derived macrophages (BMDMs) isolation from BALB/c mice and culture was done as described previously ([Weischenfeldt and Porse, 2008]), and approved by the Animal Care and Use Committees at UNC. A lactate dehydrogenase (LDH) assay (Thermo Fisher Scientific, Grand Island, NY) was used to determine cytotoxicity per manufacturer's directions.

[6] = system: L. donovani axenic amastigotes; test: Resazurin-based drug susceptibility assay on axenic amastigotes; assay type: cell-based; conditions: Leishmania donovani, 72 h drug at 37 °C
Experimental: as §1

[7] = system: Mouse bone marrow-derived macrophages (BMDMs); conditions: BALB/c
Text: as §2

VL patients = system: VL patients; design: method as in Sundar et al., 2008; conditions: AMB alone; ref Sundar et al., 2008; cited from earlier work
[8] = system: intracellular L. mexicana; design: method as in Pan et al., 2012; conditions: ref Pan et al., 2012; read-out: IC50, anti-leishmanial activity against intracellular L. mexicana; cited from earlier work
promastigotes = system: promastigotes; design: method as in Pan et al., 2012; conditions: ref Pan et al., 2012; read-out: IC50, direct activity against promastigotes; cited from earlier work
L. donovani amastigotes = system: L. donovani amastigotes; design: method as in De Muylder et al., 2011; conditions: intracellular vs axenically grown amastigotes; ref De Muylder et al., 2011; cited from earlier work

| SMILES | IC50 [1] | IC50 [2] | IC50 [3] | drug half-life [4] | Cytotoxicity LD50 [5] | IC50 [6] | Selectivity (LD50/IC50) [3] | Cytotoxicity LD50 [7] | VL patients cured (VL patients) | IC50 [8] | IC50 (promastigotes) | anti-leishmanial activity (L. donovani amastigotes) |
| --- | --- | --- | --- | --- | --- | --- | --- | --- | --- | --- | --- | --- |
| CCCCCCCCCCCCCCCCOP(=O)([O-])OCC[N+](C)(C)C [Miltefosine, miltefosine] | 5.4 ± 0.42 µM | 1.1 ± 0.37 µM | 0.55 ± 0.15 µM | ~150 h | 62.5 ± 4.95 µM | – | – | – | – | – | – | – |
| NCC(=O)Nc1ccc(-n2nc(C(F)(F)F)cc2-c2ccc3c(ccc4ccccc43)c2)cc1 [AR-12] | 3.3 ± 0.42 µM | 1.18 ± 0.18 µM | 1.44 ± 0.08 µM | – | 11.1 ± 2.5 µM | 3.45 ± 0.07 µM | 8 | – | – | – | – | – |
| NC[C@@H]1O[C@H](O[C@H]2[C@@H](O)[C@H](O[C@@H]3[C@@H](O)[C@H](N)C[C@H](N)[C@H]3O[C@H]3O[C@H](CO)[C@@H](O)[C@H](O)[C@H]3N)O[C@@H]2CO)[C@H](N)[C@@H](O)[C@@H]1O [Paromomycin, paromomycin] | 59 ± 5.66 µM | 15.2 ± 4.67 µM | 11.6 ± 0.42 µM | – | >800 µM | 22 ± 4.24 µM | >68 | – | – | – | – | – |
| C[C@@H]1[C@H](O)[C@@H](C)/C=C/C=C/C=C/C=C/C=C/C=C/C=C/[C@H](O[C@@H]2O[C@H](C)[C@@H](O)[C@H](N)[C@@H]2O)C[C@@H]2O[C@](O)(C[C@@H](O)C[C@@H](O)[C@H](O)CC[C@@H](O)C[C@@H](O)CC(=O)O[C@H]1C)C[C@H](O)[C@H]2C(=O)O [Amphotericin B, amphotericin B] | 0.047 ± 0.004 µM | 0.024 ± 0.001 µM | 0.033 ± 0.011 µM | – | – | 0.049 ± 0.005 µM | 1167 | 38.5 ± 4.95 µM | 91% | – | – | – |
| CC(=O)C1=CC[C@H]2[C@@H]3CCC4=CC(=O)CC[C@]4(C)[C@H]3C[C@@H](O)[C@]12C [DNER, 6,7-dihydroneridienone] | – | – | – | – | – | – | – | – | – | 1400 nM | 9200 nM | – |
| C=CCN1CC[C@]23c4c5ccc(O)c4O[C@H]2/C(=N/N=C2\CC[C@@]4(O)[C@H]6Cc7ccc(O)c8c7[C@@]4(CCN6CC=C)[C@H]2O8)CC[C@@]3(O)[C@H]1C5 [naloxonazine] | – | – | – | – | – | – | – | – | – | – | – | found only against intracellular L. donovani amastigotes |
